Measurements from the METLIN SMRT retention time set (Domingo-Almenara et al. 2019).

Test: gradient 5% acetonitrile 3 min, to 50% in 2 min, to 85% in 15 min, held 3 min, 100 µL/min
Conditions: column: Zorbax Extend-C18 2.1 x 50 mm; eluents: water / acetonitrile, 0.1% formic acid
Procedure, shortened: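 Retention times of pure standards were taken from adduct peaks that were selected by computer and manually inspected. Over 3 months, mixtures of ~100 molecules were run by HPLC–quadrupole time-of-flight mass spectrometry in positive and negative ionization mode. The Zorbax Extend-C18 column (2.1 × 50 mm, 1.8 μm) ran at 100 μL/min in water and acetonitrile, each containing 0.1% formic acid, with 40 μL dead volume and 900 μL dwell volume.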

| SMILES | RP-LC retention time [s] |
| --- | --- |
| CN1C(=O)c2cc(S(=O)(=O)NCc3ccccc3)ccc2Oc2cccnc21 | 959 |
| COc1cn(CC(=O)NCc2ccco2)c(CO)cc1=O | 544 |
| Cc1cccc(-c2nnc(C)c(N3CCC(C)CC3)n2)c1 | 771 |
| O=C(NC1CCCC1)c1cc2sccc2n1Cc1ccc(F)cc1 | 1080 |
| COc1ccc(NC(=O)c2c(O)c3cccnc3n(-c3cccc(F)c3)c2=O)cc1Cl | 1280 |
| Cc1cnc(C2CCC2)n1CCNC(=O)c1nccn1C | 556 |
| O=C(Cn1ncc2c3ccccc3n(Cc3ccccc3)c2c1=O)N1CCN(c2ccccn2)CC1 | 693 |
| O=C(NCC1CCCO1)C1CCN(C(=O)c2cccn2-c2cccnc2)CC1 (stereo not given) | 602 |
| Clc1ccc(-c2noc(Cc3nnc(-c4ccccc4)o3)n2)cc1 | 1050 |
| COCC1CN(C(=O)c2ccc3cc[nH]c3c2)CC12CCOCC2 (stereo not given) | 680 |
| O=C(Cn1nc(N2CCOCC2)c2ccccc2c1=O)Nc1ccccc1F | 790 |
| Cc1cccc(N2CCN(CC(O)c3ccc4c(c3)OCO4)CC2)c1C (stereo not given) | 720 |
| COc1cccc(OC)c1CN1C[C@@H](CO)[C@H](c2ccncc2)C1 | 500 |
| Cc1nc(CC(=O)NCc2ccc(F)cc2F)sc1C(=O)NC1CC1 | 693 |
| Cc1ccc(C)c(S(=O)(=O)N2CCN(c3ccc(-n4nc(C)c(C)c4C)nn3)CC2)c1 | 995 |
| CCc1ccc(OCc2nc(CCN(C)C(=O)Cc3cccs3)no2)cc1 | 1000 |
| Cn1cccc1C(=O)N1CCN(c2cc(-c3ccccc3)[nH]n2)CC1 | 747 |
| Cc1ccc(CNC(=O)c2nnc(-c3ccc(S(=O)(=O)N4CCC(C)CC4)cc3)o2)cc1 | 1100 |
| COc1ccc(C(C)NC(=O)C2CCCN(c3nccnc3Sc3ccc(C)cc3)C2)cc1 (stereo not given) | 1090 |
| CCC1CN2C=Nc3oc(C)c(C(=O)Nc4cccc(Cl)c4C)c3C2=N1 (stereo not given) | 687 |
| O=C(CCC1CCCC1)NCCC1CCN(C(=O)Nc2cc(F)ccc2F)CC1 | 924 |
| CCOC(=O)c1ccccc1NC(=O)CSc1ccc(N2CCCC(C(=O)NC3CC3)C2)nn1 (stereo not given) | 680 |
| CC(C)Cn1cc(CCNC(=O)c2ccc(F)cc2F)c2cccnc21 | 834 |

| SMILES | RP-LC retention time [s] |
| --- | --- |
| Cc1ccc(C)c(N2CCN(c3ccnc(SCC(=O)Nc4cccc(Cl)c4)n3)CC2)c1 | 999 |
| CC(C)c1noc(-c2ccc(-n3cnc(C(=O)N4CCc5ccccc5C4)c3)nc2)n1 | 1010 |
| CC(C(=O)NCCc1cccs1)n1c2ccccc2c2cnn(C)c(=O)c21 (stereo not given) | 855 |
| O=C1CC2(CCN(S(=O)(=O)c3ccc([N+](=O)[O-])cc3)CC2)Oc2ccccc21 | 907 |
| Cc1ccc(CNC(=O)C2(C)CCC(=O)N2CCc2c[nH]c3ccccc23)cc1 (stereo not given) | 805 |
| COc1ccc(-c2noc(C3CCCN3C(=O)COc3ccc(Cl)cc3)n2)cc1 (stereo not given) | 1030 |
| Cc1csc2nc(-c3cccc(NC(=O)c4ccccc4[N+](=O)[O-])c3)cn12 | 667 |
| Cc1cc(OCC(=O)N[C@H](C(=O)O)C(C)C)c2c3c(c(=O)oc2c1)CCCC3 | 837 |
| O=C(NCCc1c[nH]c2ccc(Cl)cc12)c1ccc(CN2C(=O)CCn3nccc32)cc1 | 768 |
| CCc1nc2c(NC(=O)c3cccs3)cccn2n1 | 761 |
| O=C(CC1CCCCC1)N1CCC(F)(C(=O)N2CCCC2)CC1 | 806 |
| COc1ccc(NC(=O)Cn2nc3c4sc(N(C)C)nc4ncn3c2=O)cc1 | 1410 |
| CN1C(=O)C2CCCCN2c2ccc(C(=O)N3CCc4ccccc4C3)cc21 (stereo not given) | 946 |
| O=C(C1CCN(c2cc(N3CCCCC3)ncn2)CC1)N1CCC(N2CCCCC2)CC1 | 557 |
| CC(C)c1cc(C(=O)Nc2ccccc2)nn1C1CCS(=O)(=O)C1 (stereo not given) | 845 |
| Cc1noc(C)c1-c1ccc(S(=O)(=O)NC2CCCCCC2)cc1 | 1010 |
| O=C(C1CCCC1)N1CCC(c2noc(-c3ccncc3)n2)C1 (stereo not given) | 863 |
| O=C(Nc1cnn(-c2ncc(N3CCCCC3)cn2)c1)NC1CCCC1 | 754 |
| Nc1nc(SCC(=O)NCC2CCCO2)n[nH]1 (stereo not given) | 469 |
| COc1ccc(NC(=O)CSc2cc(C)nc(-c3cnccn3)n2)cc1Cl | 757 |
| N#Cc1ccc(NC(=O)Cn2cc(-c3ccccc3)c3ncn(C4CC4)c(=O)c32)cc1 | 885 |
| COC(=O)c1c(NC(=O)c2cc(C)no2)sc(C)c1C | 1030 |
| CCOC(=O)Cc1ccc(NC(=O)Nc2cccn3cnnc23)cc1 | 698 |

| SMILES | RP-LC retention time [s] |
| --- | --- |
| Cc1ccc(-c2nc(C)c(C(=O)NC3CC3)s2)cc1 | 888 |
| CN(CC1CCOC1)C(=O)Nc1c(F)cccc1F (stereo not given) | 638 |
| Cc1ccc2nc(-c3ccccc3O)c(Nc3ccc4c(c3)OCCO4)n2c1 | 684 |
| CCOc1ccc(CC(=O)N2CC(C(=O)NC)C3(CCCC3)C2)cc1OCC (stereo not given) | 726 |
| Cc1cc2c(N3CCCC(C(=O)NCc4ccccc4C(F)(F)F)C3)nccc2s1 (stereo not given) | 738 |
| CCC1CCCCN1Cc1ccc(CNC(=O)c2c(C)oc3c2C2=NCCN2C=N3)o1 (stereo not given) | 710 |
| CCN(CC)CCNC(=O)c1cc(Br)c(N)cc1OC | 645 |
| Cc1ccc(NC(=O)C2CCCN2S(=O)(=O)c2cc3c(cc2Cl)NC(=O)CO3)cc1 (stereo not given) | 800 |
| O=C(CN1C(=O)COc2ccc(C(=O)N3CCc4ccccc43)cc21)N1CCCC1 | 760 |
| COc1ccc(CNC(=O)N2CCC(n3c(-c4ccco4)nc4cccnc43)C2)cc1 (stereo not given) | 759 |
| CCCc1noc(-c2ccnc(-n3ncc(C(=O)N4CCN(CC)CC4)c3C)c2)n1 | 643 |
| Cc1nc2cc(-c3ccccc3)nn2c(C)c1CCC(=O)N1CCN(c2ccccn2)CC1 | 652 |
| O=C(NC1CCCC1)c1ccc2c(c1)N(Cc1ccccc1)C(=O)CO2 | 873 |
| O=C(Nc1nc(-c2ccncc2)cs1)C1CCCCC1 | 588 |
| CC(Oc1cccc(Cl)c1)C(=O)NCC1(C)CCOCC1 (stereo not given) | 816 |
| CCS(=O)(=O)N1CCC(c2ccccc2)C1 (stereo not given) | 791 |
| Cc1ccc(N2CCCS2(=O)=O)cc1NC(=O)C1CCCC1 | 696 |
| COC(=O)c1cccc(N2C=C(C#N)S(=O)(=O)c3ccc(F)cc32)c1 | 860 |
| CCN(CC)c1ccc(NC(=O)C2CCCN(S(=O)(=O)c3cn(CC)cn3)C2)c(C)c1 (stereo not given) | 578 |
| CCS(=O)(=O)N1CCc2ccc(NC(=O)c3cccs3)cc2C1 | 747 |
| CC(C)CNS(=O)(=O)c1cccc2cnccc12 | 647 |
| Oc1cc2c(c(Cl)c1O)CCNC[C@@H]2c1ccccc1 | 648 |
| CN(C)CCn1nnc2cc(-c3noc(-c4ccc(F)cc4)n3)ccc21 | 651 |

| SMILES | RP-LC retention time [s] |
| --- | --- |
| COc1cccc(CCN2CC(=O)N(c3cccc(C)c3)[C@@H]3CS(=O)(=O)C[C@@H]32)c1 | 849 |
| Cc1ccc(Cl)cc1NC(=O)NCCc1cn(CC(C)C)c2ncccc12 | 946 |
| Cc1ccc(NC(=O)C2CCCN(c3nc4ccccc4nc3C(F)(F)F)C2)c(Cl)c1 (stereo not given) | 1350 |
| O=C(CS(=O)(=O)Cc1ccccc1)Nc1nc2cc3c(cc2s1)OCO3 | 790 |
| COc1cccc(N2CCN(S(=O)(=O)c3cc(-c4cc(C(F)(F)F)on4)cs3)CC2)c1 | 1200 |
| COc1cccc(C(O)CN2CCN(C3CCCCC3)CC2)c1 (stereo not given) | 548 |
| O=C(Cc1csc2nc(-c3ccccc3)cn12)N1CCN(c2ccc(Cl)cc2)CC1 | 915 |
| Cc1cccc(-c2noc(CN3N=NC4C(=O)N(c5ccc(C(C)C)cc5)C(=O)C43)n2)c1 (stereo not given) | 1150 |
| CC[C@H](C)C(=O)O[C@H]1C[C@H](O)C=C2C=C[C@H](C)[C@H](CC[C@@H]3C[C@@H](O)CC(=O)O3)[C@H]21 | 891 |
| O=C(Nc1ccc(-n2cnnn2)cc1)c1ccc(N2CCCC2)nn1 | 620 |
| O=C(NCc1ccco1)C1CCN(S(=O)(=O)c2cc(C(=O)N3CCCC3)cs2)CC1 | 715 |
| CCc1cc(=O)n(CC(=O)Nc2ccc3c(c2)OCCO3)c(-c2cccc(F)c2)n1 | 1090 |
| O=C(Nc1cc(F)ccc1F)c1c(O)c2cccnc2n(-c2cccc(F)c2)c1=O | 1260 |
| CCc1cc(=O)n(CC(=O)Nc2ccc(Br)cc2)c(N2CCOCC2)n1 | 829 |
| CCOC(=O)c1ccc(NC(=O)c2cnn(-c3ccc(Br)cc3)c2)cc1 | 1070 |
| O=C(Nc1cccc(-c2nnc3n2CCCC3)c1)c1cc(C2CC2)[nH]n1 | 590 |
| Cc1nc(-c2csc(S(=O)(=O)N3CCCC(C(=O)Nc4cccc(F)c4)C3)c2)no1 (stereo not given) | 978 |
| CCc1ccc(NC(=O)c2cn(CC)c3ncccc23)cc1 | 962 |
| Cc1ccc(-n2c(=O)c3sccc3n(Cc3nc(-c4ccc(Cl)c(F)c4)no3)c2=O)cc1 | 1150 |
| Cc1cn(C)c(CC(=O)NCc2ccco2)c1C(=O)O | 671 |
| CC(C)CCCC(C)N (stereo not given) | 641 |
